Results published in patent publication US6872517B2, “Early diagnosis of cancerous and precancerous conditions by leakage of signature peptides and carbohydrates into the bloodstream” (Lankenau Institute for Medical Research, priority 2000, dated 2005).

Legend:
DMH-treated colon = assay: Barrier function of DMH-treated colon (Rt, 14C-D-mannitol flux, aberrant crypts); format: in vivo, rat
Text: In addition, however, weekly changes in barrier function of DMH-treated colon were examined, with an emphasis on assessing that function by means of electrophysiology (Rt) and transepithelial flux of ^14C-D-mannitol.

[1] = test system: renal epithelial cell line; conditions: cited from earlier work
occludin = conditions: cited from earlier work
LLC-PK1 = conditions: cited from earlier work
rat colon epithelium = assay: Increased luminal EGF in rat colon; format: in vivo
Text: The biological significance here is that luminal fluids of many epithelial tissues contain very high levels of certain growth factors (Barnard et al., 1995; Jorgenson et al., 1990; Nexo et al., 1992; Mroczkowski and Reich, 1993), whereas the receptors for these growth factors are normally found on the abluminal cell surface. (Bishop and Wen, 1994; Muto et al., 1991; Thompson, 1988; Scheving et al., 1989). […] (Mullin, 1997). […] This is a direct consequence of the carcinogen's effect on colonic crypt epithelial TJs as described below.

[2] = as weeks of DMH exposure progressed

Compound: CNNC [DMH, dimethylhydrazine]
- transepithelial electrical resistance (Rt) (DMH-treated colon; [2]): irregular but significant decline
- transepithelial flux of 14C-D-mannitol (DMH-treated colon; [2]): rise
- number of aberrant colon crypts (DMH-treated colon; with increasing weeks of DMH exposure): increased in number

Compound: CCCCCCCCCCCCCC(=O)O[C@@H]1[C@@H](C)[C@@]2(O)[C@@H](C=C(CO)C[C@]3(O)C(=O)C(C)=C[C@@H]23)[C@@H]2C(C)(C)[C@]12OC(C)=O [TPA]
- transepithelial leakiness to salts [1]: capable of causing transepithelial leakiness to salts
- ZO-1 expression (occludin; immunofluorescence): down regulated
- localization of occludin (occludin; immunofluorescence): very little change
- threonine phosphorylation state of occludin (occludin; in association with increased TJ permeability): decrease
- transepithelial electrical resistance (Rt) (LLC-PK1; LLC-PK1 cell line): rapid, dose dependent decrease
- penetration of tight junctions by ruthenium red (LLC-PK1; TPA-treated cell sheets, not control cultures): able to penetrate
- size of molecules the TJs became leaky to (LLC-PK1; TPA-treated cell sheets): ≤ 2 million
- crossing of paracellular markers D-mannitol (mw 182) and polyethylene glycol (mw 4000) (LLC-PK1; TPA-treated epithelial cell sheet vs control cell sheet): much more rapidly
- morphology after chronic exposure (LLC-PK1; chronic exposure, 4 days or greater): polyp-like, multilayered foci

Compound: EGF: Epidermal Growth Factor, a growth factor (NSDSECPLSHDGYCLHDGVCMYIEALDKYACNCVVGYIGERCQYRDLKWWELR; Epidermal growth factor; UniProt P01133 971-1023, looked up)
- carcinomas in carcinogen-treated rat colon (rat colon epithelium; colon treated with dimethylhydrazine, luminal EGF increased): greater number and size of carcinomas
- effect on normal rat colon epithelium (rat colon epithelium; increased EGF concentration in colonic lumen): does not produce any observed effect
